{
  "source": "patent US20060228297A1",
  "about": "“Thorium-227 for use in radiotherapy of soft tissue disease” (priority 2003, published 2006)",
  "key": {"[1]": {"test_system": "patients with breast or prostate cancer", "experiment": "Phase I study of ^223Ra, single doses, neutrophil cell fractions (Example 8)", "assay_type": "in vivo, humans", "settings": "for Days to nadir (neutrophil cell fraction) / ˜% of baseline at nadir (neutrophil cell fraction): humans", "source_text": "In a phase I study in patients with breast or prostate cancer, dose levels of 37, 74, 130, 170 and 200 kBq/kg of ^223Ra were given as single doses. Neutrophil cell fractions were monitored as a sensitive measure of haematological toxicity."}, "humans": {"test_system": "humans", "experiment": "Estimate of ^223Ra toxicity from prior art (translated from ^224Ra dog data)", "settings": "expected for humans, assuming similar haematological toxicity in dogs and humans", "source_text": "Because of the lack of human data on toxicity of radium-223 and radium-224, an assumed radiotoxicity for ^223Ra can be derived as follows, using published data for radium-224 in dogs. The decay series (including the decays of daughter nuclides) of both ^224Ra and ^223Ra causes an emission of four alpha panicles per radium atoms. The total alpha particle doses from ^223Ra and ^224Ra in equilibrium with daughters are approximately 26.3 and 27.1 MeV per transformation respectively and are therefore closely equivalent. The half-lives of ^224Ra is 3.62 days and for ^223Ra it is 11.43 days. This means that per activity unit injected, the skeletal dose from ^223Ra would be approximately 3.1 times that from ^224Ra, taking into account alpha energy and half-life differences, and assuming long-term biological retention of the radionuclide (i.e., the clearance is governed by the physical half-life of the radionuclide). This is a valid assumption because Ra is a Ca analogue and is readily incorporated into the skeleton.\nAt 350 kBq/kg death, caused by haematological dyscrasia resulting from bone marrow destruction, occurred in some subjects (3 dogs out of 8). It may therefore be assumed that the maximum tolerable dose of ^224Ra is between 120 and 350 kBq/kg in dogs. Translated into ^223Ra, as described above, this would correspond to 39-113 kBq/kg of ^223Ra. […]"}},
  "data": [
    {"smiles": "[223Ra]", "note": "[^223Ra, radium-223]", "values": [
      {"measurement": "Dose that can be administered and tolerated", "setting": "[1]; human subjects", "result": "at least 200 kBq/kg"},
      {"measurement": "Days to nadir (neutrophil cell fraction)", "setting": "[1]; 37 kBq/kg single dose", "result": 14, "unit": "days"},
      {"measurement": "˜% of baseline at nadir (neutrophil cell fraction)", "setting": "[1]; 37 kBq/kg single dose", "result": "~60", "unit": "%"},
      {"measurement": "Days to nadir (neutrophil cell fraction)", "setting": "[1]; 74 kBq/kg single dose", "result": 14, "unit": "days"},
      {"measurement": "˜% of baseline at nadir (neutrophil cell fraction)", "setting": "[1]; 74 kBq/kg single dose", "result": "~60", "unit": "%"},
      {"measurement": "Days to nadir (neutrophil cell fraction)", "setting": "[1]; 130 kBq/kg single dose", "result": 28, "unit": "days"},
      {"measurement": "˜% of baseline at nadir (neutrophil cell fraction)", "setting": "[1]; 130 kBq/kg single dose", "result": "~50", "unit": "%"},
      {"measurement": "Days to nadir (neutrophil cell fraction)", "setting": "[1]; 170 kBq/kg single dose", "result": 21, "unit": "days"},
      {"measurement": "˜% of baseline at nadir (neutrophil cell fraction)", "setting": "[1]; 170 kBq/kg single dose", "result": "~40", "unit": "%"},
      {"measurement": "Days to nadir (neutrophil cell fraction)", "setting": "[1]; 200 kBq/kg single dose", "result": 21, "unit": "days"},
      {"measurement": "˜% of baseline at nadir (neutrophil cell fraction)", "setting": "[1]; 200 kBq/kg single dose", "result": "~30", "unit": "%"},
      {"measurement": "Maximum tolerable dose, translated from ^224Ra dog data", "setting": "humans", "result": "39-113 kBq/kg"}
    ]}
  ]
}
